Laboratory results as given in patent US5958719A, “Method for the determination of the activity of specific phosphotyrosine phosphatases and specific effectors thereof in intact cells” (Max-Planck Gesellschaft Zur Foderung der Wissenschaften E.V., priority 1995, dated 1999).
“Also recorded” adds a separate entry of the source.

Assays:
[1] = system: NGF receptor; assay: NGF receptor dephosphorylation over time in intact NGF-stimulated TrkA-transfected PC12 cells after addition of PTK inhibitor; assay type: cell-based, rat; conditions: K252a 1 μM added after 10 min NGF stimulation; intact PC12 cells transfected with TrkA
From the text: (§1) PC 12 cells (rat pheochromocytoma cells) which overexpress NGF receptors (Trk A) (Obermeier et al. (1994)) were used for the experiments shown. Stimulation of the cells with NGF leads to a rapid autophosphorylation of these receptors at tyrosine residues. This autophosphorylation can be detected in immunoblots using anti-phosphotyrosine antibodies after immunoprecipitation of the receptors. The identity of the cellular PTPases which dephosphorylate autophosphorylated NGF receptors is not known.
PC12 cells transfected with TrkA were treated in serum-free medium with NGF (lanes 2-6) or the corresponding solvent (lane 1). After a 10 minute stimulation, K252a (1 μM, B) or the corresponding solvent (DMSO, A) was added. At the stated various time points the cells treated correspondingly were tested as described in FIG. 1 and the phosphotyrosine content of the NGF receptors was examined. […] This decrease is caused by the activity of the NGF receptor-directed PTPase in the intact cells.

[2] = system: NGF receptor PTK (Trk); assay: Inhibition of NGF receptor PTK (NGF-induced TrkA autophosphorylation, immunoprecipitation and anti-phosphotyrosine immunoblot) in PC12 cells; assay type: cell-based, rat; conditions: K252a 1 μM, 2 min (short) preincubation, then NGF 150 ng/ml 10 min; PC12 cells overexpressing TrkA
From the text: as §1
PC12 cells that overexpress TrkA were incubated as stated for various periods in serum-free cell culture medium without supplements (lanes 1, 2) or with the NGF receptor PTK inhibitor K252a (final concentration 1 μM) (lanes 3-6). Then NGF (final concentration 150 ng/ml) (lanes 2-6) or the corresponding solvent (lane 1) was added and the incubation was continued for 10 minutes.

[3] = system: NGF receptor PTK; conditions: Ohmichi et al (1992); Tapley et al (1992); cited from earlier work
[4] = system: PDGF receptor PTK; assay: Inhibition of PDGF receptor PTK (PDGF-induced receptor autophosphorylation, anti-phosphotyrosine immunoblot) in Swiss 3T3 cells; assay type: cell-based, mouse; conditions: AG1296 50 μM, 2 min preincubation, then PDGF-BB 100 ng/ml 5 min
From the text: (§2) Swiss 3T3 fibroblasts (mouse) express PDGFα and PDGFβ receptors on the cell surface (Hosang et al. (1989)). Stimulation of the cells with PDGF leads to a rapid autophosphorylation of these receptors at tyrosine residues. This autophosphorylation can be detected in immunoblots using anti-phosphotyrosine antibodies after immunoprecipitation of the receptors and can be detected in unfractionated cell lysates. The autophosphorylated receptors are rapidly dephosphorylated by PDGF receptor-directed PTPase(s) (Bohmer et al. (1993)). The identity of the cellular PTPases which catalyse this reaction is not known. […] If the inhibitor is added to cells after activation of the PDGF receptor PTK, the dephosphorylation of the PDGF receptor can be monitored over time. (FIG. 3).
Confluent, resting Swiss 3T3 cells were incubated as stated for various periods in serum-free cell culture medium without supplements (lanes 1, 2) or with the PDGF receptor PTK inhibitor AG1296 (final concentration 50 μM) (lanes 3-6). Then human recombinant PDGF-BB (final concentration 100 ng/ml) (lanes 2-6) or the corresponding solvent (lane 1) was added and the incubation was continued for 5 minutes.

[5] = system: PDGF receptor-directed PTPase(s); assay: PDGF receptor-directed PTPase activity (dephosphorylation of autophosphorylated PDGF receptor) in isolated Swiss 3T3 cell membranes; assay type: biochemical, mouse; conditions: AG1296 50 μM, 30 min incubation, 10 mM EDTA
From the text: as §2
Isolated Swiss 3T3 cell membranes (10 μg protein per lane) were treated for 20 minutes on ice with PDGF (2 μg/ml). The activated PDGF receptor PTK was then autophosphorylated by adding 3 mM (final concentration) ATP. The kinase reaction was inhibited by addition of 10 mM EDTA. At the same time AG1296 (50 μM) (B) or the corresponding solvent (DMSO) (A) was added. The phosphotyrosine content of the PDGF receptor was measured in a similar manner to that described in FIG. 1 immediately after addition of the agents (0 min) or after 30 min incubation. […]

[6] = system: PDGF receptor; assay: PDGF receptor dephosphorylation over time in intact PDGF-stimulated Swiss 3T3 cells after addition of PTK inhibitor; assay type: cell-based, mouse; conditions: AG1296 50 μM added after 5 min PDGF stimulation; intact Swiss 3T3 cells
From the text: as §2
Swiss 3T3 cells were treated in serum-free medium with PDGF (FIG. 3, lanes 2-6) or the corresponding solvent (FIG. 3, lane 1). After 5 minutes stimulation AG1296 (50 μM, FIG. 3B) or the corresponding solvent (DMSO, FIG. 3 A) was added. The phosphotyrosine content of the PDGF receptor was examined in the cells thus treated at the stated various time points. […] This decrease is caused by the activity of the PDGF receptor-directed PTPase in the intact cells.

[7] = system: PDGF receptor-directed PTPase(s); assay type: cell-based, mouse

Question: Which results are given for `COC(=O)C1(O)CC2OC1(C)n1c3ccccc3c3c4c(c5c6ccccc6n2c5c31)C(=O)NC4` (centres unmarked) [K252a]?
Answer: phosphotyrosine content of the NGF receptor over time [1]: very rapid dephosphorylation; also recorded: decreases significantly; inhibition of Trk receptor PTK activity / NGF-induced receptor autophosphorylation [2]: completely inhibits the activity; also recorded: completely suppressed; specificity of inhibition of NGF receptor PTK and PTK of other neurotrophin receptors [3]: specific inhibitor of the NGF receptor PTK

Question: For `COc1cc2ncc(-c3ccccc3)nc2cc1OC` [AG1296], which “inhibition of PDGF receptor PTK activity / PDGF-induced receptor autophosphorylation” value [4] is on record?
Answer: Its value is “completely inhibits its activity; also recorded: completely suppressed”.

Question: What about the “influence on PDGF receptor-directed PTPase activity (dephosphorylation)” value [5] of the same compound?
Answer: Its value is “does not influence the activity of the PTPase(s); also recorded: does not inhibit; also recorded: does not influence this dephosphorylation”.

Question: What about the “phosphotyrosine content of the PDGF receptor over time” value [6] of the same compound?
Answer: The value was “continuously decreases”.

Question: With `CNc1ccc2oc(CC3OC4(CCC3C)OC(C(C)C(=O)c3ccc[nH]3)C(C)CC4C)nc2c1C(=O)O` (centres unmarked) [A23187] as the compound, how does the “action on PTPases which specifically dephosphorylate the PDGF receptor” value [7] read?
Answer: The value was “activator”.

Question: And the “Relative PDGF receptor-directed PTPase activity (% of control)” value ([7]; swiss 3t3 cells, 5 min, 1 µM)?
Answer: The value was 161 % of control.
